Patent US20120010075A1 (priority 2009, published 2012)
Where two headings read alike, the source gives them in different places.

What was measured:
Phytophthora infestans = format: in vivo, Phytophthora infestans on tomato; conditions: applied 24 h before inoculation, assessed 7 days after inoculation
[1] = tested on: Leptosphaeria nodorum (LEPTNO); experiment: In vitro fungitoxicity of hydrazones with and without copper towards Leptosphaeria nodorum (Example 26); format: cell-based; conditions: 72 h at 25° C.; for inhibition of growth at 0.05 µg/mL: Parastagonospora nodorum, 72 h, copper-minus medium, read-out: LEPTNO % Inhn. Minus Copper Observed
[2] = hydrazone 50 ppm with 50 μM CuCl2.2H2O, tomato late blight
[3] = test compound Concn. 0.05 μg/mL
[4] = copper-plus medium (CuCl2 10 μM), test compound Concn. 0.05 μg/mL
[5] = hydrazone 50 ppm + 50 μM CuCl2.2H2O, tomato
[6] = compound 0.05 μg/mL, copper-plus medium (CuCl2.2H2O)

| SMILES | TLB % Control (Phytophthora infestans; [2]) | inhibition of growth at 0.05 µg/mL [1, 3] | LEPTNO % Inhn. Plus Copper Observed [1, 4] | melting point | TLB % Control (Phytophthora infestans; [5]) | inhibition of growth at 0.05 µg/mL ([1]; compound 0.05 μg/mL) | LEPTNO % Inhn. Plus Copper Observed [1, 6] |
| --- | --- | --- | --- | --- | --- | --- | --- |
| O=C(N/N=C/c1cc(C(F)(F)F)cc(Cl)c1O)c1ccccc1C(F)(F)F [Example 330] | 99.0% | 5.3% | 92.9% | 169 to 171 °C | – | – | – |
| O=C(N/N=C/c1c(O)ccc(Cl)c1Cl)c1ccccc1 [Example 241] | – | – | – | 273 to 274 °C | 62.7% | 0.5% | 97.0% |
| N#Cc1cc(F)c(O)c(/C=N/NC(=O)c2ccccc2)c1 [Example 307] | 25.0% | 0% | 91.3% | 262 to 263 °C | – | – | – |
| C/C(=N\NC(=O)c1ccccc1C)c1cc(F)cc(F)c1O [Example 573] | 93.0% | 2.4% | 98.4% | 186 to 188 °C | – | – | – |
| COc1ccc(/C(C)=N/NC(=O)c2ccc(C(F)(F)F)cc2)c(O)c1OC [Example 560] | 65.0% | 1.3% | 90.7% | 229 to 233 °C | – | – | – |
| O=C(N/N=C/c1c(O)cccc1Cl)c1ccccc1C(F)(F)F [Example 407] | 70.0% | 0% | 92.0% | 222 to 226 °C | – | – | – |
| Cc1ccc(C(=O)N/N=C/c2cc(Cl)ccc2O)c(O)c1 [Example 446] | 57.0% | 23.5% | 95.4% | 282 to 286 °C | – | – | – |
| CC/C(=N\NC(=O)c1c(Cl)cccc1Cl)c1ccccc1O [Example 48] | – | – | – | 181 to 184 °C | 40.0% | 0.3% | 94.6% |
| O=C(N/N=C(/c1cc(Cl)cc(Cl)c1O)C1CC1)c1ccccc1 [Example 589] | 61.0% | 8.7% | 97.9% | 218 to 219 °C | – | – | – |
| COc1ccc(/C(C)=N/NC(=O)c2cccc(C)c2)c(O)c1 [Example 282] | – | – | – | 184 to 185 °C | 52.0% | 0% | 94.7% |
| Cc1ccc(C(=O)N/N=C/c2cc(Cl)cc(Cl)c2O)c(C)c1 [Example 27] | – | – | – | 246 to 247 °C | 43.3% | 16.5% | 97.9% |
| C/C(=N\NC(=O)c1ccc(Cl)cc1)c1cc(Br)cc(Br)c1O [Example 545] | 95.0% | 19.6% | 97.9% | 255 to 258 °C | – | – | – |
| Cc1ccc(C(=O)N/N=C/c2cc(Cl)cc(Cl)c2O)c(O)c1 [Example 308] | 96.0% | 37.2% | 97.7% | 262 to 269 °C | – | – | – |
| C/C(=N\NC(=O)c1ccccc1Br)c1cc(Br)cc(Br)c1O [Example 549] | 94.0% | 0% | 97.3% | 214 to 216 °C | – | – | – |
| O=C(N/N=C/c1ccc(Cl)c(Cl)c1O)c1ccc(F)cc1 [Example 357] | 93.0% | 56.7% | 97.4% | 244 to 246 °C | – | – | – |
| C/C(=N\NC(=O)c1ccccc1O)c1cccc(Cl)c1O [Example 503] | 66.0% | 5.2% | 97.0% | 283 to 287 °C | – | – | – |
| C/C(=N\NC(=O)c1ccc(C)cc1)c1cc(F)cc(F)c1O [Example 575] | 100.0% | 0% | 98.1% | 220 to 222 °C | – | – | – |
| O=C(N/N=C/c1c(O)cc(C(F)(F)F)cc1C(F)(F)F)c1ccccc1 [Example 276] | – | – | – | 144 to 193 °C | 71.2% | 5.5% | 97.8% |
| C/C(=N\NC(=O)c1ccccc1O)c1cc(Br)cc(Br)c1O [Example 550] | 63.0% | 4.6% | 97.2% | 305 to 306 °C | – | – | – |
| Cc1cccc(C(=O)N/N=C/c2cc(Cl)cc(Br)c2O)c1O [Example 165] | – | – | – | 218 to 221 °C | 88.4% | 14.9% | 98.4% |
| COc1cccc(C(=O)N/N=C/c2cc(Cl)ccc2O)c1C [Example 133] | – | – | – | 122 to 128 °C | 71.9% | 8.8% | 98.5% |

| SMILES | TLB % Control (Phytophthora infestans; [2]) | inhibition of growth at 0.05 µg/mL [1, 3] | LEPTNO % Inhn. Plus Copper Observed [1, 4] | melting point | TLB % Control (Phytophthora infestans; [5]) | inhibition of growth at 0.05 µg/mL ([1]; compound 0.05 μg/mL) | LEPTNO % Inhn. Plus Copper Observed [1, 6] |
| --- | --- | --- | --- | --- | --- | --- | --- |
| Cc1cccc(C(=O)N/N=C/c2cc(C(F)(F)F)ccc2O)c1 [Example 435] | 100.0% | 4.7% | 97.2% | 192 to 194 °C | – | – | – |
| C/C(=N\NC(=O)c1ccccc1)c1cc(Br)cc(Br)c1O [Example 539] | 100.0% | 1.6% | 98.0% | 242 to 245 °C | – | – | – |
| C/C(=N\NC(=O)c1ccccc1O)c1cc(Cl)ccc1O [Example 515] | 47.0% | 0% | 97.6% | 298 to 318 °C | – | – | – |
| Cc1ccc(C(=O)N/N=C/c2cc(Cl)cc(Br)c2O)c(O)c1 [Example 434] | 100.0% | 25.6% | 97.4% | 262 to 268 °C | – | – | – |
| O=C(N/N=C/c1cc(Cl)cc(Br)c1O)c1ccc(OC(F)(F)F)cc1 [Example 106] | – | – | – | 210 to 220 °C | 88.7% | 0% | 94.6% |
| Cc1cccc(C(=O)N/N=C/c2cc(Cl)cc(C(F)(F)F)c2O)c1 [Example 376] | 98.0% | 13.6% | 96.5% | 199 to 201 °C | – | – | – |
| O=C(N/N=C/c1cc(Cl)cc(Br)c1O)c1ccc(C(F)(F)F)cc1 [Example 164] | – | – | – | 250 to 251 °C | 96.5% | 10.8% | 98.6% |
| O=C(N/N=C/c1cc(Cl)cc(Cl)c1O)c1cc2ccccc2cc1O [Example 563] | 70.0% | 20.6% | 96.9% | 287 to 292 °C | – | – | – |
| O=C(N/N=C/c1c(C(F)(F)F)ccc(Cl)c1O)c1ccccc1 [Example 319] | 78.0% | 18.1% | 96.6% | 216 to 218 °C | – | – | – |
| O=C(N/N=C/c1cccc(Cl)c1O)c1ccccc1O [Example 431] | 91.0% | 8.5% | 95.1% | 266 to 268 °C | – | – | – |
| Cc1ccc(C(=O)N/N=C/c2cc(C(F)(F)F)ccc2O)cc1 [Example 436] | 94.0% | 14.6% | 98.2% | 245 to 249 °C | – | – | – |
| O=C(N/N=C/c1ccc(Cl)cc1O)c1ccccc1O [Example 395] | 76.0% | 8.2% | 93.9% | 210 to 213 °C | – | – | – |
| COc1ccc(/C(C)=N/NC(=O)c2ccc(Cl)cc2)c(O)c1OC [Example 557] | 90.0% | 13% | 95.7% | 230 to 235 °C | – | – | – |
| Cc1ccc(C(=O)N/N=C/c2cccc(C(F)(F)F)c2O)c(O)c1 [Example 352] | 100.0% | 8.8% | 98.4% | 248 to 253 °C | – | – | – |
| O=C(N/N=C/c1cc(Cl)cc(Cl)c1O)c1cccc(OC(F)(F)F)c1 [Example 250] | – | – | – | 180 to 182 °C | 97.0% | 8.7% | 98.1% |
| C/C(=N\NC(=O)c1ccccc1C)c1ccc(Cl)cc1O [Example 252] | – | – | – | 214 to 215 °C | 28.0% | 7.8% | 98.4% |
| C/C(=N\NC(=O)c1ccccc1Cl)c1cc(F)cc(F)c1O [Example 576] | 90.0% | 0.7% | 97.9% | 205 to 209 °C | – | – | – |
| O=C(N/N=C/c1cccc(Cl)c1O)c1ccccc1C(F)(F)F [Example 432] | 72.0% | 0% | 95.9% | 118 to 121 °C | – | – | – |
| O=C(N/N=C/c1cc(C(F)(F)F)cc(C(F)(F)F)c1O)c1ccccc1 [Example 295] | – | – | – | 232 to 234 °C | 89.8% | 5.8% | 98.0% |
| O=C(N/N=C/c1c(O)cccc1C(F)(F)F)c1ccccc1 [Example 297] | 69.5% | 0% | 96.4% | 228 to 230 °C | – | – | – |
